Results: PubChem BioAssay (NCI)
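Exposure lasted 48 hours, with cells grown in 96-well plates and compounds tested at five concentrations. Abbreviation: GI50, concentration required for 50% inhibition of growth. The concentration for full growth arrest is given as TGI.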

Key:
Experiment in all cases: NCI tumour cell line growth inhibition, 48 h
[1] = test system: 786-0 renal
[2] = test system: A498 renal
[3] = test system: A549 NSCLC
[4] = test system: ACHN renal
[5] = test system: BT-549 breast
[6] = test system: CAKI-1 renal
[7] = test system: CCRF-CEM leukemia
[8] = test system: COLO 205 colon
[9] = test system: DU-145 prostate
[10] = test system: EKVX NSCLC
[11] = test system: HCC-2998 colon
[12] = test system: HCT-116 colon
[13] = test system: HCT-15 colon
[14] = test system: HL-60(TB) leukemia
[15] = test system: HOP-62 NSCLC
[16] = test system: HOP-92 NSCLC
[17] = test system: HS 578T breast
[18] = test system: HT29 colon
[19] = test system: IGROV1 ovarian
[20] = test system: K-562 leukemia
[21] = test system: KM12 colon
[22] = test system: LOX IMVI melanoma
[23] = test system: M14 melanoma
[24] = test system: MALME-3M melanoma
[25] = test system: MCF7 breast
[26] = test system: MDA-MB-231 breast
[27] = test system: MDA-MB-435
[28] = test system: MDA-MB-468 breast
[29] = test system: MOLT-4 leukemia
[30] = test system: NCI-H226 lung
[31] = test system: NCI-H23 lung
[32] = test system: NCI-H460 lung
[33] = test system: NCI-H522 lung
[34] = test system: OVCAR-3 ovarian
[35] = test system: OVCAR-4 ovarian
[36] = test system: OVCAR-5 ovarian
[37] = test system: OVCAR-8 ovarian
[38] = test system: PC-3 prostate
[39] = test system: RPMI-8226 leukemia
[40] = test system: RXF 393 renal
[41] = test system: SF-268 CNS
[42] = test system: SF-295 CNS
[43] = test system: SF-539 CNS
[44] = test system: SK-MEL-2 melanoma
[45] = test system: SK-MEL-28 melanoma
[46] = test system: SK-MEL-5 melanoma
[47] = test system: SK-OV-3 ovarian
[48] = test system: SN12C renal
[49] = test system: SNB-19 CNS
[50] = test system: SNB-75 CNS
[51] = test system: SR leukemia
[52] = test system: SW-620 colon
[53] = test system: T-47D breast
[54] = test system: TK-10 renal
[55] = test system: U251 CNS
[56] = test system: UACC-257 melanoma
[57] = test system: UACC-62 melanoma
[58] = test system: UO-31 renal

SMILES: O=C(c1ccc(O)cc1)C1[C@H](c2ccccc2Br)[C@@H](c2ccccc2)NC12C(=O)Nc1ccccc12 (stereo partly specified)
- GI50 [1]: 9.47 µM
- TGI [1]: 18.1 µM
- GI50 [2]: 8.6 µM
- TGI [2]: 16.8 µM
- GI50 [3]: 8.07 µM
- TGI [3]: 16.9 µM
- GI50 [4]: 9.17 µM
- TGI [4]: 17.8 µM
- GI50 [5]: 7.23 µM
- TGI [5]: 15 µM
- GI50 [6]: 7 µM
- TGI [6]: 15.1 µM
- GI50 [7]: 10 µM
- TGI [7]: 22.9 µM
- GI50 [8]: 9.19 µM
- TGI [8]: 17.8 µM
- GI50 [9]: 10 µM
- TGI [9]: 19 µM
- GI50 [10]: 9.34 µM
- TGI [10]: 23.2 µM
- GI50 [11]: 8.48 µM
- TGI [11]: 16.6 µM
- GI50 [12]: 8.93 µM
- TGI [12]: 18 µM
- GI50 [13]: 9.43 µM
- TGI [13]: 20 µM
- GI50 [14]: 15.1 µM
- TGI [14]: 44.7 µM
- GI50 [15]: 9.37 µM
- TGI [15]: 18.1 µM
- GI50 [16]: 7.83 µM
- TGI [16]: 16.4 µM
- GI50 [17]: 9.49 µM
- TGI [17]: 27.2 µM
- GI50 [18]: 10.2 µM
- TGI [18]: 20.5 µM
- GI50 [19]: 7.29 µM
- TGI [19]: 15.5 µM
- GI50 [20]: 12.9 µM
- TGI [20]: 40.2 µM
- GI50 [21]: 9.8 µM
- TGI [21]: 20.2 µM
- GI50 [22]: 8.3 µM
- TGI [22]: 16.2 µM
- GI50 [23]: 8.94 µM
- TGI [23]: 17.7 µM
- GI50 [24]: 8.58 µM
- TGI [24]: 16.4 µM
- GI50 [25]: 10.4 µM
- TGI [25]: 27.6 µM
- GI50 [26]: 7.94 µM
- TGI [26]: 15.8 µM
- GI50 [27]: 10.5 µM
- TGI [27]: 20 µM
- GI50 [28]: 7.08 µM
- TGI [28]: 16 µM
- GI50 [29]: 7.99 µM
- TGI [29]: 25 µM
- GI50 [30]: 6.82 µM
- TGI [30]: 15 µM
- GI50 [31]: 9.23 µM
- TGI [31]: 18.2 µM
- GI50 [32]: 9.17 µM
- TGI [32]: 17.8 µM
- GI50 [33]: 8.25 µM
- TGI [33]: 17.5 µM
- GI50 [34]: 9.2 µM
- TGI [34]: 18.3 µM
- GI50 [35]: 8.72 µM
- TGI [35]: 19.1 µM
- GI50 [36]: 9.47 µM
- TGI [36]: 18.2 µM
- GI50 [37]: 9.27 µM
- TGI [37]: 17.7 µM
- GI50 [38]: 8.03 µM
- TGI [38]: 21.3 µM
- GI50 [39]: 12.8 µM
- TGI [39]: 42.6 µM
- GI50 [40]: 5.14 µM
- TGI [40]: 12.8 µM
- GI50 [41]: 7.83 µM
- TGI [41]: 18.8 µM
- GI50 [42]: 9.77 µM
- TGI [42]: 21 µM
- GI50 [43]: 9.08 µM
- TGI [43]: 17.2 µM
- GI50 [44]: 8.33 µM
- TGI [44]: 16.2 µM
- GI50 [45]: 9.1 µM
- TGI [45]: 17.2 µM
- GI50 [46]: 8.92 µM
- TGI [46]: 16.9 µM
- GI50 [47]: 11.9 µM
- TGI [47]: 31.3 µM
- GI50 [48]: 8.7 µM
- TGI [48]: 16.6 µM
- GI50 [49]: 9.03 µM
- TGI [49]: 17.2 µM
- GI50 [50]: 7.87 µM
- TGI [50]: 19.9 µM
- GI50 [51]: 9.59 µM
- TGI [51]: 24 µM
- GI50 [52]: 10.1 µM
- TGI [52]: 19.6 µM
- GI50 [53]: 10.5 µM
- TGI [53]: 38.9 µM
- GI50 [54]: 9.29 µM
- TGI [54]: 18.8 µM
- GI50 [55]: 9.11 µM
- TGI [55]: 17.1 µM
- GI50 [56]: 8.73 µM
- TGI [56]: 16.9 µM
- GI50 [57]: 7.63 µM
- TGI [57]: 15.1 µM
- GI50 [58]: 7.61 µM
- TGI [58]: 15 µM
